Data from patent EP4620949A1, “ACKR3 MODULATORS FOR CARDIOVASCULAR OR ANTIPLATELET THERAPY” (Eberhard Karls Universität Tübingen (Medizinische Fakultät), priority 2024, dated 2025).
Values joined by “and” are separate entries in the source; they are usually repeats but may differ in a detail not shown here. Equal entries are not always repeated.

Target: T1, human ACKR3 (Homo sapiens, UniProt P25106)
T1 construct: expressed in transfected cells; host or cells: HEK293T
Test: ACKR3 β-Arrestin recruitment assay (NanoLuc complementation, NanoBiT) in HEK293T cells
Type: cell-based
Conditions: for EC50: ACKR3, HEK293T cells, average value of three independent experiments; for Efficacy (Emax) vs CXCL12: efficacy of CXCL12 at 300 nM set as 100%, average of three independent experiments
Procedure: ACKR3 β-Arrestin Recruitment Assay. […] T.; Encell, L. P.; Wood, K. V. Nanoluc complementation reporter optimized for accurate measurement of protein interactions in cells. […] B.; Reynders, N.; Vanderplasschen, A.; Ollert, M.; Bouvier, M.; Szpakowska, M.; Chevigné, A. Proadrenomedullin n-terminal 20 peptides (pamps) are agonists of the chemokine scavenger receptor ACKR3/CXCR7. […] The prepared cells were then treated with compounds at concentrations ranging from 0.3 nM to 100 µM. Induction of β-Arrestin recruitment to receptors was evaluated by measuring bioluminescence with a Mithras LB940 luminometer (Berthold Technologies).
All curves were fitted to data points generated from the mean of at least three independent experiments. Results with values of p < 0.05 were considered statistically significant.

T1 sequence (P25106 whole entry): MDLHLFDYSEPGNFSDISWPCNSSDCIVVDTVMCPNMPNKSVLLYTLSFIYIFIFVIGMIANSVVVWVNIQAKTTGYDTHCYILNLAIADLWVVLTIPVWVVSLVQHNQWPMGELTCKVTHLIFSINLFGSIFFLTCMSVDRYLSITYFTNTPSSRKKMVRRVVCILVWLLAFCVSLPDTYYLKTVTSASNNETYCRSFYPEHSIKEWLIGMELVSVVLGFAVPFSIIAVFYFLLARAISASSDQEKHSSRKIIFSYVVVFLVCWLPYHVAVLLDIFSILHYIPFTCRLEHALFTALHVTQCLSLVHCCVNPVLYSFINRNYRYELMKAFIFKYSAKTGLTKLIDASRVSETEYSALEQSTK
T1 sequence (P49407 whole entry partner): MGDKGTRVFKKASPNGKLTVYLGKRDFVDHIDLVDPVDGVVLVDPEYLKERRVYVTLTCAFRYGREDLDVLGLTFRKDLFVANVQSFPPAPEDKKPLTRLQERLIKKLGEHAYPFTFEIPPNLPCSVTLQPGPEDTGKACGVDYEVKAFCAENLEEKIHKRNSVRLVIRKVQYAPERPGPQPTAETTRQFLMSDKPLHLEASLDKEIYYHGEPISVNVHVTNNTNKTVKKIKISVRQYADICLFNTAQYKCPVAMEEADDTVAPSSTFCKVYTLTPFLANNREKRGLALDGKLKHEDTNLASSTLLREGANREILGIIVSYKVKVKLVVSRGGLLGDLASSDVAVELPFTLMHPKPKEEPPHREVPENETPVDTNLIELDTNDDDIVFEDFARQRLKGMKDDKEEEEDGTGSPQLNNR

| SMILES | EC50 | Efficacy (Emax) vs CXCL12 [%] | more potent than 1 (β-Arrestin recruitment potency relative to compound 1) |
| --- | --- | --- | --- |
| O=C(Nc1cccc(CN2CCCN(C(=O)c3ccc(-c4ccccc4)s3)CC2)c1)c1ccc(F)cc1 [Compound 41, 4-fluoro-N-(3-((4-(5-phenylthiophene-2-carbonyl)-1,4-diazepan-1-yl)methyl)phenyl)benzamide] | 76 µM and 89 µM | 50 |  |
| CN(CCCNC(=O)c1ccc(-c2ccccc2)s1)Cc1cccc(NC(=O)c2ccc(F)cc2)c1 [Compound 36, N-(3-((3-(4-fluorobenzamido)benzyl)(methyl)amino)propyl)-5-phenylthiophene-2-carboxamide] | 2.1 µM and 1.1 µM | 86 |  |
| CC(C)(C)NC(=O)C1CCN(CCCNC(=O)c2ccc(-c3ccccc3)s2)CC1 [Compound 37, N-(tert-butyl)-1-(3-(5-phenylthiophene-2-carboxamido)propyl)piperidine-4-carboxamide] | 3.2 µM and 2.5 µM | 102 |  |
| CN(CCCNC(=O)c1cc2ccccc2[nH]1)Cc1ccccc1 [Compound 4, N-(3-(benzyl(methyl)amino)propyl)-1H-indole-2-carboxamide] | 2.67 µM |  |  |
| CN(CCCNC(=O)c1ccc(-c2ccc(C(C)(C)C)cc2)s1)Cc1ccccc1 [Compound 10, N-(3-(benzyl(methyl)amino)propyl)-5-(4-(tert-butyl)phenyl)thiophene-2-carboxamide] | 10.2 µM |  |  |
| CC(C)(C)OC(=O)N1CCCC(CNC(=O)c2ccc(-c3ccccc3)s2)C1 (centres unmarked) [Compound 38, tert-butyl 3-((5-phenylthiophene-2-carboxamido)methyl)piperidine-1-carboxylate] | 4.68 µM |  |  |
| CN(CCCNC(=O)CSc1ccccc1)Cc1ccccc1 [Compound 7, N-(3-(benzyl(methyl)amino)propyl)-2-(phenylthio)acetamide] | 809 µM | 99 |  |
| O=C(NCc1ccccc1)C1CCN(Cc2csc(-c3ccccc3)n2)CC1 [Compound 48, N-benzyl-1-((2-phenylthiazol-4-yl)methyl)piperidine-4-carboxamide] | 1.5 µM and 1.1 µM | 110 |  |

Continued by falling EC50, values first:

| EC50 | Efficacy (Emax) vs CXCL12 [%] | more potent than 1 (β-Arrestin recruitment potency relative to compound 1) | SMILES |
| --- | --- | --- | --- |
| 3.35 µM |  |  | O=C(Nc1cccc(CNC(=O)c2ccc(-c3ccccc3)s2)c1)c1ccc(F)cc1 [Compound 43, N-(3-(4-fluorobenzamido)benzyl)-5-phenylthiophene-2-carboxamide] |
| 1.72 µM |  |  | CN(CCCNC(=O)c1ccc(-c2ccncc2)s1)Cc1ccccc1 [Compound 13, N-(3-(benzyl(methyl)amino)propyl)-5-(pyridin-4-yl)thiophene-2-carboxamide] |
| 1.62 µM |  |  | CN(CCCNC(=O)c1ccc(Br)s1)Cc1ccccc1 [Compound 2, N-(3-(benzyl(methyl)amino)propyl)-5-bromothiophene-2-carboxamide] |
| 0.93 µM |  |  | COc1ccc(CN(C)CCCNC(=O)c2ccc(-c3ccccc3)s2)cc1 [Compound 18, N-(3-((4-methoxybenzyl)(methyl)amino)propyl)-5-phenylthiophene-2-carboxamide] |
| 0.775 µM |  |  | CN(CCCNC(=O)c1cc2ccccc2s1)Cc1ccccc1 [Compound 3, N-(3-(benzyl(methyl)amino)propyl)benzo[b]thiophene-2-carboxamide] |
| 0.709 µM |  |  | CC(C)N(CCCNC(=O)c1ccc(-c2ccccc2)s1)Cc1ccccc1 [Compound 24, N-(3-(benzyl(isopropyl)amino)propyl)-5-phenylthiophene-2-carboxamide] |
| 0.576 µM |  |  | Cc1ccc(-c2ccc(C(=O)NCCCN(C)Cc3ccccc3)s2)cc1 [Compound 9, N-(3-(benzyl(methyl)amino)propyl)-5-(p-tolyl)thiophene-2-carboxamide] |
| 0.37 µM |  |  | CN(CCCNC(=O)c1ccc(-c2ccccc2)s1)Cc1ccc(F)cc1 [Compound 20, N-(3-((4-fluorobenzyl)(methyl)amino)propyl)-5-phenylthiophene-2-carboxamide] |
| 0.267 µM |  | up to 1.5 fold | CN(CCCNC(=O)c1ccc(-c2cccc(F)c2)s1)Cc1ccccc1 [Compound 16, N-(3-(benzyl(methyl)amino)propyl)-5-(3-fluorophenyl)thiophene-2-carboxamide] |
